Measurements taken from EP0550775A1, “Cephalosporin derivatives” (F. HOFFMANN-LA ROCHE AG, priority 1992, dated 1993).
Counter-ions that a name gives are not always drawn. Like-named read-outs stand apart in the source and are kept apart here.

Legend:
Type in all cases: cell-based
E. coli ATCC 25922 = experiment: microbe, parasite or virus in culture
Method: (§1) In vitro activity of the compounds of the present invention was measured by the Minimum Inhibitory Concentration (MIC) in micrograms/ml utilizing the Agar Dilution Method, which is well known in the art, against a variety of gram-negative and gram-positive organisms.

E. coli 257 = experiment: microbe, parasite or virus in culture; details: agar dilution
Method: as §1

E. coli TEM-1 = experiment: microbe, parasite or virus in culture; details: agar dilution
Method: as §1

Enter. cloacae P99 = experiment: microbe, parasite or virus in culture; details: agar dilution
Method: as §1

Str. pneumoniae 6301 = experiment: In vitro MIC, Agar Dilution Method; details: Str. pneumoniae 6301, agar dilution
Method: as §1

Staph. aureus Smith = experiment: In vitro MIC, Agar Dilution Method
Method: as §1

Staph. aureus 753 = experiment: In vitro MIC, Agar Dilution Method
Method: as §1

Prot. vulgaris 1028 BC = experiment: In vitro MIC, Agar Dilution Method
Method: as §1

Ps. aeruginosa 765 = experiment: In vitro MIC, Agar Dilution Method
Method: as §1

Prot. mirabilis 90 = experiment: In vitro MIC, Agar Dilution Method; details: Prot. mirabilis 90, agar dilution
Method: as §1

Ps. aeruginosa 5712 = experiment: In vitro MIC, Agar Dilution Method
Method: as §1

Ser. marcescens 1071 = experiment: In vitro MIC, Agar Dilution Method; details: Ser. marcescens 1071, agar dilution
Method: as §1

Enter. cloacae 5699 = experiment: In vitro MIC, Agar Dilution Method; details: Enter. cloacae 5699, agar dilution
Method: as §1

Ser. marcescens SM = experiment: In vitro MIC, Agar Dilution Method
Method: as §1

Ps. aeruginosa 18SH = experiment: In vitro MIC, Agar Dilution Method
Method: as §1

Staph. aureus ATCC 29213 = experiment: In vitro MIC, Agar Dilution Method
Method: as §1

[1] = system: Ps. aeruginosa ATCC 27853; experiment: In vitro MIC, Agar Dilution Method
Method: as §1

Ps. aeruginosa 8780 = experiment: In vitro MIC, Agar Dilution Method
Method: as §1

Staph. aureus 1059B = experiment: In vitro MIC, Agar Dilution Method
Method: as §1

Str. faecalis ATCC 29212 = experiment: In vitro MIC, Agar Dilution Method; details: Str. faecalis ATCC 29212, agar dilution
Method: as §1

Cit. freundi BS-16 = experiment: In vitro MIC, Agar Dilution Method
Method: as §1

Staph. aureus 67 = experiment: In vitro MIC, Agar Dilution Method; details: Staph. aureus 67, agar dilution
Method: as §1

Str. pyogenes 4 = experiment: In vitro MIC, Agar Dilution Method; details: Str. pyogenes 4, agar dilution
Method: as §1

Prot. vulgaris ATCC 6380 = experiment: In vitro MIC, Agar Dilution Method
Method: as §1

K. pneumoniae A = experiment: In vitro MIC, Agar Dilution Method; details: K. pneumoniae A, agar dilution
Method: as §1

[2] = Escherichia coli, read-out: MIC
[3] = Enterobacter cloacae, read-out: MIC
[4] = Staphylococcus aureus, read-out: MIC
[5] = Pseudomonas aeruginosa, read-out: MIC
[6] = Serratia marcescens, read-out: MIC

Measured: MIC

CC(C)(O/N=C(\C(=O)N[C@@H]1C(=O)N2C(C(=O)[O-])=C(CN3CCN(c4cc5c(cc4F)c(=O)c(C(=O)O)cn5C4CC4)CC3)CS[C@H]12)c1csc(N)n1)C(=O)O.[Na+] [Compound A, [6R-[6α,7β(Z)]]-7-[[(2-Amino-4-thiazolyl)[(1-carboxy-1-methylethoxy)imino]acetyl]amino]-3-[[4-(3-carboxy-1-cyclopropyl-6-fluoro-1,4-dihydro-4-oxo-7-quinolinyl)-1-piperazinyl]methyl]-8-oxo-5-thia-1-azabicyclo[4.2.0]oct-2-ene-2-carboxylic acid sodium salt]
4000 µg/mL: Staph. aureus 1059B
8000 µg/mL: Staph. aureus Smith | Staph. aureus 753 | Ps. aeruginosa 765 | Staph. aureus ATCC 29213 | [1] | Ps. aeruginosa 8780 | Str. faecalis ATCC 29212
500 µg/mL: E. coli TEM-1 | Enter. cloacae P99 | Prot. vulgaris ATCC 6380 | K. pneumoniae A
2000 µg/mL: Prot. mirabilis 90 | Ps. aeruginosa 18SH
125 µg/mL: Cit. freundi BS-16
16000 µg/mL: Ps. aeruginosa 5712 | Staph. aureus 67
1000 µg/mL: Prot. vulgaris 1028 BC | Ser. marcescens 1071 | Enter. cloacae 5699 | Ser. marcescens SM
250 µg/mL: E. coli ATCC 25922; agar dilution | E. coli 257 | Str. pneumoniae 6301 | Str. pyogenes 4

Nc1nc(/C(=N/OCC(=O)O)C(=O)N[C@@H]2C(=O)N3C(C(=O)[O-])=C(CN4CCN(c5cc6c(cc5F)c(=O)c(C(=O)O)cn6C5CC5)CC4)CS[C@H]23)cs1.[Na+] [Compound B, [6R-[6α,7β(Z)]]-7-[[(2-Amino-4-thiazolyl)[(carboxy-methoxy)imino]acetyl]amino]-3-[[4-(3-carboxy-1-cyclopropyl-6-fluoro-1,4-dihydro-4-oxo-7-quinolinyl)-1-piperazinyl]methyl]-8-oxo-5-thia-1-azabicyclo[4.2.0]oct-2-ene-2-carboxylic acid sodium salt]
16000 µg/mL: [1] | Str. faecalis ATCC 29212
2000 µg/mL: Prot. mirabilis 90 | Ser. marcescens 1071 | Staph. aureus 1059B
125 µg/mL: Str. pyogenes 4
250 µg/mL: E. coli 257 | Enter. cloacae P99 | Str. pneumoniae 6301 | Prot. vulgaris ATCC 6380
500 µg/mL: E. coli ATCC 25922; agar dilution | E. coli TEM-1
8000 µg/mL: Staph. aureus Smith | Staph. aureus 753 | Ps. aeruginosa 765 | Staph. aureus ATCC 29213 | Ps. aeruginosa 8780
4000 µg/mL: Ps. aeruginosa 18SH
32000 µg/mL: Ps. aeruginosa 5712 | Staph. aureus 67
1000 µg/mL: Prot. vulgaris 1028 BC | Enter. cloacae 5699 | Ser. marcescens SM | Cit. freundi BS-16 | K. pneumoniae A

N[C@@H](C(=O)N[C@@H]1C(=O)N2C(C(=O)O)=C(CN3CCN(c4cc5c(cc4F)c(=O)c(C(=O)O)cn5C4CC4)CC3)CS[C@H]12)c1ccccc1 [Compound D, [6R-[6α,7β(R)]]-7-[(Aminophenylacetyl)amino]-3-[[4-(3-carboxy-1-cyclopropyl-6-fluoro-1,4-dihydro-4-oxo-7-quinolinyl)-1-piperazinyl]methyl]-8-oxo-5-thia-1-azabicyclo[4.2.0]oct-2-ene-2-carboxylic acid trifluoroacetic acid salt]
2000 µg/mL: Str. pneumoniae 6301; Streptococcus pneumoniae, read-out: MIC | Staph. aureus 753; [4] | Ps. aeruginosa 765; [5] | Staph. aureus 67; [4]
500 µg/mL: Staph. aureus Smith; [4]
31.3 µg/mL: E. coli ATCC 25922; Escherichia coli, ATCC25922, agar dilution, read-out: MIC | E. coli 257; [2] | E. coli TEM-1; [2] | Enter. cloacae P99; [3] | K. pneumoniae A; Klebsiella pneumoniae, read-out: MIC
4000 µg/mL: Ps. aeruginosa 5712; [5] | Str. faecalis ATCC 29212; Enterococcus faecalis, ATCC29212, read-out: MIC
125 µg/mL: Ser. marcescens 1071; [6] | Enter. cloacae 5699; [3] | Ser. marcescens SM; [6]
250 µg/mL: Prot. mirabilis 90; Proteus mirabilis, read-out: MIC
1000 µg/mL: Ps. aeruginosa 18SH; [5] | Staph. aureus ATCC 29213; Staphylococcus aureus, ATCC29213, read-out: MIC | [1]; Pseudomonas aeruginosa, ATCC27853, read-out: MIC | Ps. aeruginosa 8780; [5] | Staph. aureus 1059B; [4] | Str. pyogenes 4; Streptococcus pyogenes, read-out: MIC
62.5 µg/mL: Prot. vulgaris 1028 BC; Proteus vulgaris, read-out: MIC | Cit. freundi BS-16; read-out: MIC | Prot. vulgaris ATCC 6380; Proteus vulgaris, ATCC6380, read-out: MIC

CC(C)(O/N=C(\C(=O)N[C@@H]1C(=O)N2C(C(=O)[O-])=C(CN3CCN(c4cc5c(cc4F)c(=O)c(C(=O)[O-])cn5C4CC4)CC3)CS[C@H]12)c1csc(N)n1)C(=O)NNC(=O)c1ccc(O)c(O)c1.[Na+].[Na+] [Compound G, [6R-[6α,7β(Z)]]-7-[[[(2-Amino-4-thiazolyl)[1-[[(3,4-dihydroxybenzoyl)hydrazino]carbonyl]-1-methylethoxy]imino]acetyl]amino]-3-[[4-(3-carboxy-1-cyclopropyl-6-fluoro-1,4-dihydro-4-oxo-7-quinolinyl)-1-piperazinyl]methyl]-8-oxo-5-thia-1-azabicyclo[4.2.0]oct-2-ene-2-carboxylic acid sodium salt]
8000 µg/mL: Staph. aureus 67
125 µg/mL: E. coli ATCC 25922; agar dilution | E. coli 257 | Str. pneumoniae 6301 | Prot. vulgaris ATCC 6380
500 µg/mL: Ps. aeruginosa 765 | Prot. mirabilis 90 | Ser. marcescens 1071 | Ser. marcescens SM | Ps. aeruginosa 18SH | [1] | K. pneumoniae A
4000 µg/mL: Staph. aureus 753 | Staph. aureus ATCC 29213 | Staph. aureus 1059B | Str. faecalis ATCC 29212
62.5 µg/mL: E. coli TEM-1
250 µg/mL: Enter. cloacae P99 | Prot. vulgaris 1028 BC | Ps. aeruginosa 5712 | Enter. cloacae 5699 | Ps. aeruginosa 8780 | Cit. freundi BS-16 | Str. pyogenes 4
2000 µg/mL: Staph. aureus Smith
